Assay results: patent publication US20220339178A1, “COMPOSITIONS AND METHODS FOR COGNITIVE PROTECTION OF POLLINATORS AGAINST PESTICIDES” (priority 2019, published 2022)

Legend:
[1] = system: bumblebee Bombus impatiens; experiment: Olfactory conditioning of PER in bumblebees: ad libitum rutin vs acute imidacloprid or fipronil; assay type: in vivo
Description: One colony of the bumblebee Bombus impatiens (Koppert Inc) was kept in laboratory conditions. Bees received pollen inside the nests and foraged to a 1M sugar-water feeder outside of the nest. Bees were collected while on the feeder and iced anesthetized to then be randomly assigned to one of two plastic containers where ad libitum self-administration of one of two solutions was allowed to 10 bees: i) 1 M sucrose water or ii) 1 μM Rutin (Sigma-Aldrich R5143) diluted in 1M sucrose water. On the night of the third day, the feeder was removed to starve the bees. On the fourth day, the bees were iced anesthetized and yolked restrained in plastic pipettes. Bees were maintained in the pipettes for the rest of the experiment (two days). One hour after harnessing, the bees were randomly assigned to one of three treatments: i) 20 μL of 1M sucrose water, ii) 20 μL of 1M sucrose water+5 nM imidacloprid, iii) 20 μL of 1M sucrose water+6 nM fipronil. Thus, overall bees belonged to one of six treatments:
Control: ad libitum sucrose water for three days and 20 μL of sucrose water before training
Rutin: ad libitum 1 μM Rutin for three days and 20 μL of sucrose water before training
Imid: ad libitum sucrose water for three days and 20 μL of 5 nM Imidacloprid in 1M sugar water 2 hours before training
Rutin+Imid: ad libitum 1 μM Rutin for three days and 20 μL of 5 nM Imidacloprid in 1M sugar water 2 hours before training
Fipronil: ad libitum sucrose water for three days and 20 μL of 5 nM fipronil in 1M sucrose water 2 hours before training
Rutin+Fipronil: ad libitum […] Rutin for three days and 20 μL of 6 nM fipronil in 1M sugar water 2 hours before training
(§1) All bees were blind-trained using olfactory conditioning of the proboscis extension response (PER). Briefly, bees were exposed to a presentation of 1-nonanol (Sigma-Aldrich) for 10 s. After 7 s of the onset of the odor presentation, the antenna was stimulated with 1.5 M sugar-water to elicit the PER. Following the PER, the bee was allowed to drink sugar-water for 3 s. Each paired presentation was considered a training trial and each individual received eleven training trials with an average intertrial interval of 10 minutes. After training, all bees were fed 20 μL of 1M sugar water and maintained in plastic boxes for 24 h until the retention test. […] Twenty-four hours after the last training trial the bees were presented with the conditioned odor for 10 s.
(§2) Learning for each individual was quantified as the number of conditioned PER responses across the trials. Thus, for each bee a learning score between zero and ten (0-10) was recorded.
(§3) Multiple comparisons were then run comparing learning score relative to Control bees using a non-parametric one or two-tailed Steel Method depending upon predictions. These comparisons informed us about the predicted impairment produced by the insecticides, the predicted innocuous effect of the flavonoid and the potential level of protection. Error due to multiple comparisons was controlled using the False Discovery Rate method (FDR-two stage sharpened method). In all cases corrected p-values (q-values) are presented.
(§4) Memory retention was quantified as a nominal variable (yes/no). Data were compared across treatments using a Chi-square test, followed by multiple comparisons of all treatments vs. Control. Error due to multiple comparisons was controlled using the FDR as indicated above. In all cases corrected p-values (q values) are presented.
Latency was quantified as a continuous variable between 0.5 s and 10 s. Data were compared across treatments using an ANOVA following a Log transformation to normalize the distribution (Shapiro-Wilk W Test after log transformation: p>0.05 for all treatments for the null hypothesis that data is from a normal distribution), followed by multiple comparisons between all treatments and the Control group. Error due to multiple comparisons was controlled using the FDR method as indicated above. […]

[2] = system: Honey bee foragers (Apis mellifera scutellata); experiment: Classical conditioning of PER in honey bees: rutin, kaempferol, p-coumaric acid vs fipronil; assay type: in vivo; details: for learning score relative to Control bees: score 0-10, 1 μM rutin, 131 μM kaempferol, 200 μM p-coumaric acid or Mix twice a day for three days, 228 nM fipronil 10 μL three hours before training; for latency of response relative to Control bees: Dunnett's method
Description: (§5) Honey bee foragers (Apis mellifera scutellata) were captured from established hives at the Apiary of the Universidad del Rosario (Bogota, Colombia) between 08:00 h and 10:00 h. Bees were ice-anesthetized and harnessed in plastic tubes and maintained under laboratory conditions for the duration of the experiment (five days). Food was provided twice a day in a volumen of 10 μL and varied in composition according to experimental treatments.
Bees were randomly allocated to one of the following treatments administered twice a day for three consecutive days (all concentrations are final):
Control: 1M sucrose water (10 μL)
Rut: 1 μM rutin (Sigma-Aldrich: R5143)-1M sugar water (10 μL)
Kaemp:131 μM kaempferol (Sigma-Aldrich:K0133)+1M sugar water (10 μL)
p-Cou A: 200 μM p-coumaric acid (Sigma-Aldrich:C9008) diluted in 1M sugar water (10 μL)
Mix: 1 μM rutin, 131 μM kaempferol and 200 μM p-Coumaric acid): Bees fed with composition diluted in 1M sugar water (10 μL) fed twice a day for three days
On the fourth day, bees were randomly assigned to one of two treatments three hours before training:
Fipronil: 10 μL of 228 nM Fipronil (Astuto Invesa) in 1M sucrose water
Sucrose solution: 10 μL 1M sucrose water
Thus, bees belong to one of ten treatments: Control, Kaemp, Rut, p-Cou A, Mix, Fipro, Kaemp+Fipro, Rut+Fipro, p-Cou A+Fipro, Mix+Fipro.
Bees were trained using classical conditioning of the proboscis extension response (PER). Briefly, bees received a soft current of clean air for 15 seconds to allow bees to accommodate. Then a soft current of 1-hexanol (Sigma-Aldrich: 471402) was injected for 10 seconds. Six seconds after injection of 1-hexanol, one of the antennae was stimulated with sugar water (1.5M), which leads to the reflexive extension of the proboscis, and the bee was allowed to drink for 4 seconds. Thus, the reward and the stimulus overlapped for four seconds. This sequence, recognized as a training trial, was repeated eleven times. Time was determined using a metronome (2 Hz). Memory retention was tested 24 hours after the eleven training trials. […] 12 bees were trained each session. Training was conducted by an experimenter blind to treatment.
as §2, §3, §4
Latency was quantified as a continuous variable between 0.5 s and 10 s. Data were compared across treatments using an ANOVA following a Log transformation to normalize the distribution (Shapiro-Wilk W Test after log transformation: p>0.05 for all treatments for the null hypothesis that data is from a normal distribution), followed by multiple comparisons between all treatments and the Control group (Dunnett's method). Error due to multiple comparisons was controlled using the FDR method as indicated above. In all cases corrected p-values (q-values) are presented.

[3] = system: bumblebee Bombus impatiens; experiment: Olfactory conditioning of PER in bumblebees: self-administered rutin vs chronic fipronil; assay type: in vivo
Description: One colony of the bumblebee Bombus impatiens (Koppert Inc) was kept in laboratory conditions. Bees received pollen inside the nests and foraged to a 1M sugar-water feeder outside of the nest. Bees were collected while on the feeder and iced anesthetized to then be randomly assigned to one of four plastic containers where self-administration of one of two solutions was allowed to 10 bees out of two feeders (glass vials with 500 μL of solution each): i) 1 M sucrose water or ii) 1 μM Rutin (Sigma-Aldrich R5143) diluted in 1M sucrose water. Feeders were refilled each day for three days. On the night of the third day, one of the vials was replaced by a new one with one of two solutions: i) 1 M sucrose water or ii) 1M sucrose water+6 nM fipronil. Feeders were refilled each day for three more days, thus providing a chronic exposure to fipronil. On the night of the […] day, bees were iced anesthetized and yolked restrained in plastic pipettes. Thus, bees belonged to one of four treatments:
Control: self-administered sucrose water for six days
Rut: self-administered rutin for six days
Fipro: self-administered sucrose water for three days followed by three days of self-administered sucrose water (one feeder) and fipronil (one feeder).
Rut+Fipro: self-administered rutin for three days followed by three days of self-administered rutin (one feeder) and fipronil (one feeder).
as §1, §2
as §3, with “fipronil,” for “insecticides,”, “rutin” for “flavonoid”
as §4
Latency was quantified as a continuous variable between 0.5 s and 10 s. […]

AChE = details: literature report; cited from earlier work
[4] = system: butyrylcholinesterase (BChE); details: literature report; cited from earlier work
[5] = system: Honey bee foragers (Apis mellifera scutellata); experiment: Sucrose responsiveness (sensory sensitivity) of honey bees: flavonoids vs deltamethrin; assay type: in vivo; details: for sensitivity (sucrose responsiveness, total PER score) relative to Control bees: honey bees, rutin 1 μM, kaempferol 131.7 μM or both for one day, 17.81 μM deltamethrin next day, pooled score
Description: as §5, with “(three” for “(five”, “days).” for “days). Food was provided twice a day in a volumen of 10 μL and varied in composition according to experimental treatments.”
On the first day, bees were randomly allocated to one of four treatments administered as two doses (morning: 20 μL; afternoon:10 μL): i) Control (1M sucrose solution), ii) Rutin 1 μM (Sigma-Aldrich R5143), iii) Kaempferol 131.7 μM (Sigma-Aldrich K0133), iv) Rutin-Kaempferol composition (final concentration of […] rutin and 131.7 μM kaempferol). All solutions were diluted in 1M sucrose solution to the concentrations described above. The next day, bees from each group were randomly assigned to one of two treatments: […] of 1M sucrose solution or 17.81 μM deltamethrin (Dinastia Bayer). Thus, bees belonged to one of eight treatments: i) Sucrose water (Control), ii) Rutin (Rut), iii) Kaempferol (Kaemp), iv) Kaempferol+Rutin (Kaemp+Rut), v) Deltamethrin (Delta), vi) Rutin+Deltamethrin (Rut+Delta), vii) Kaempferol+Deltamethrin (Kaemp+Delta), viii) Kaempferol+Rutin+Deltamethrin ((Kaemp+Rut)+Delta). All solutions were diluted in 1M sugar water to the concentrations described above.
Sensory sensitivity was evaluated using responsiveness to sucrose, a proxy of resource exploitation by foragers. On the second day, bees of the eight treatments described above were tested five times for their response threshold (0 h, 1 h, 2 h, 3 h and 4 h). The first measure (0 h) was done prior to pesticide administration. Bees were tested with an ascending sucrose concentration of 0.1, 0.3, 1, 3, 10 and 30% (w/w). Between each concentration, the bees were presented with pure water as a control for potential sensitization or habituation (Pankiw et al., Behav Ecol Sociobiol (2000) 47:265-267). The inter-trial time between the presentation of each sucrose concentration was at least 4 minutes. For each presentation, the reflexive extension of the proboscis (tongue) of the bee, after antennal stimulation with the solution was recorded. After the last measure (4 h), bees were fed with 10 μL of 1M sucrose solution and maintained until the next day for a final test (24 hours after pesticide administration).
For each bee, a responsiveness score was determined (0-7) 0 h, 1 h, 2 h, 3 h, 4 h and 24 h, and a pooled scored (0-42). Normal distribution of the scores was tested using Shapiro-Wilk W Test for the null hypothesis that data is from a Normal distribution. […] Thus, non-parametric tests were used for comparisons across treatments and for multiple comparisons. Overall changes of responses across different concentrations were evaluated using repeated-measured MANOVA. Error associated with multiple comparisons was controlled using the Two-stage sharpened False Discovery Rate, and corrected p-values (q-values) are presented. Data were explored for outliers using a single run of Robust Fit outliers test. All analyses were conducted using JMP v.14 (SAS Institute Inc.)

[6] = bumblebees, 24 h retention test

N#Cc1nn(-c2c(Cl)cc(C(F)(F)F)cc2Cl)c(N)c1[S+]([O-])C(F)(F)F (stereo not drawn) [Fipronil]
odds of remembering for Control bees relative to insecticide bees ([1]; 24 h retention): 3.4 times
proportion difference Control minus insecticide group for a PER response (Adjusted Wald test) ([1]; 24 h retention): 0.30
decision-making ratio (latency of response / learning score) relative to Control bees ([1]; bumblebees): significant increase
bees exhibiting a conditioned response after 24 h [1, 6]: 34.6%
learning score relative to Control bees ([1]; bumblebees, score 0-10, ad libitum 1 μM rutin three days, 5 nM imidacloprid or 6 nM fipronil 20 μL 2 hours before training): significantly lower
proportion difference Control minus treatment for a PER response (Adjusted Wald test) ([2]; 24 h retention): 0.545
bees exhibiting a conditioned response after 24 h ([2]; honey bees, 24 h retention test): None
learning score relative to Control bees ([2]; honey bees): significantly lower
odds of remembering for Control bees relative to Fipro bees ([3]; 24 h retention): 8.7 times
proportion difference Control-Fipro for a PER response (Adjusted Wald test) ([3]; 24 h retention): 0.48
bees exhibiting a conditioned response after 24 h [3, 6]: 33.3%
learning score relative to Control bees ([3]; bumblebees, score 0-10, self-administered 1 μM rutin six days, 6 nM fipronil feeder for the last three days (chronic)): significantly lower

C=CC(C)(C)c1c2c(c(O)c3c(=O)c4ccc(O)c(O)c4oc13)C=CC(C)(C)O2 [macluraxanthone]
inhibition of AChE (AChE): concentration-dependent inhibition ability
inhibition of butyrylcholinesterase (BChE) [4]: concentration-dependent inhibition ability

O=c1c(O)c(-c2ccc(O)cc2)oc2cc(O)cc(O)c12 [Kaemp, Kaempferol]
latency of response relative to Control bees [2]: not significantly different from Control
learning score relative to Control bees ([2]; honey bees): not significantly different from Control bees
sensitivity (sucrose responsiveness, total PER score) relative to Control bees [5]: not significantly affected

CC1(C)[C@H](C(=O)O[C@H](C#N)c2cccc(Oc3ccccc3)c2)[C@@H]1C=C(Br)Br [Deltamethrin]
sensitivity 24 h after administration of the insecticide relative to Control bees ([5]; 24 h): lowest sensitivity
bees responding to 30% sucrose water ([5]; after 4 hours): less than 30%
improvement in response to 30% sucrose water ([5]; after 24 hours): 10%
bees responsive to 30% sucrose-water ([5]; after one hour): less than 40%
sensitivity (sucrose responsiveness, total PER score) relative to Control bees [5]: significantly lower

O=C(O)/C=C/c1ccc(O)cc1 [p-CouA, p-coumaric acid]
latency of response relative to Control bees [2]: not significantly different from Control
learning score relative to Control bees ([2]; honey bees): not significantly different from Control bees
